Measured values: patent publication US12637425B2, “Compounds and formulations for treating ophthalmic diseases” (Visus Therapeutics, Inc., priority 2020, dated 2026)

Biological target: T1, Recombinant cryAB(R120G) protein (Homo sapiens, UniProt P02511, R120G)
T1 sequence (P02511 1-175 R120G): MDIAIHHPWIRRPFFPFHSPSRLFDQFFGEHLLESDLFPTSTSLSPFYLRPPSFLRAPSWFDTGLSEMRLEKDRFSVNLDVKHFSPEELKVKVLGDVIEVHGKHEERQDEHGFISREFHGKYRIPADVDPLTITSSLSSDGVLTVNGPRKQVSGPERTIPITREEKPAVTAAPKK
Experiment: Kinetic turbidity aggregation assay of recombinant cryAB(R120G)
Format: biochemical
Settings: for inhibition at 25 µM: read-out: % Inhibition of Protein Aggregation, 25 μM cmpd; for inhibition at 100 µM: read-out: % Inhibition of Protein Aggregation, 100 μM cmpd; for inhibition at 400 µM: read-out: % Inhibition of Protein Aggregation, 400 μM cmpd; for IC50: inhibition of cryAB(R120G) protein aggregation
Procedure: Example A-1: Kinetic Turbidity Aggregation Assay of Recombinant cryAB(R120)
Recombinant cryAB(R120G) protein was diluted to 100 μM in assay buffer (50 mM Tris, 100 mM NaCl, 5 mM DTT, 0.01% Triton X-100, 0.05% PEG-8000). Compounds were dissolved in DMSO at 10 mM then typically diluted to 2.5 mM in DMSO and serially diluted 2-fold as necessary. To a 384-well black microplate in quadruplicate was added 81 μL assay buffer, followed by 15 μL protein solution, and 4 μL compound to give a final concentration of 15 μM cryAB(R120G) protein in 4% DMSO. […] N.D. is not determined.

[1] = 25 μM compound, 15 μM cryAB(R120G), 42° C., absorbance at 550 nm
[2] = 100 μM compound, 15 μM cryAB(R120G), 42° C., absorbance at 550 nm
[3] = 400 μM compound, 15 μM cryAB(R120G), 42° C., absorbance at 550 nm

| Compound | inhibition at 25 µM [1] [%] | inhibition at 100 µM [2] [%] | inhibition at 400 µM [3] [%] | IC50 [µM] | % Inhibition of Protein Aggregation, 25 μM cmpd [1] [%] | % Inhibition of Protein Aggregation, 100 μM cmpd [2] [%] | % Inhibition of Protein Aggregation, 400 μM cmpd [3] [%] |
| --- | --- | --- | --- | --- | --- | --- | --- |
| CN(C)C(CNS(=O)(=O)c1ccc2cc[nH]c2c1)c1cn(C)c2ccc(F)cc12 (stereo not shown) [Compound 20, N-(2-(dimethylamino)-2-(5-fluoro-1-methyl-1H-indol-3-yl)ethyl)-1H-indole-6-sulfonamide] | 49 | 99.2 | 93.4 |  |  |  |  |
| Cn1cc(C(CNS(=O)(=O)c2ccc3[nH]ccc3c2)N2CCCC2)c2ccccc21 (stereo not shown) [Compound 26, N-(2-(1-methyl-1H-indol-3-yl)-2-(pyrrolidin-1-yl)ethyl)-1H-indole-5-sulfonamide] | -4 | 90.6 |  |  |  |  |  |
| CC(C)n1cc(C(CNS(=O)(=O)c2cccc3cc[nH]c23)N(C)C)c2ccccc21 (stereo not shown) [Compound 14, N-(2-(dimethylamino)-2-(1-isopropyl-1H-indol-3-yl)ethyl)-1H-indole-7-sulfonamide] | 11 | 74.9 | 81 |  |  |  |  |
| Cn1cc(C(CNS(=O)(=O)c2ccc3cc[nH]c3c2)N2CC[C@H](F)C2)c2ccccc21 (stereo partly drawn) [Compound 36, N-(2-((S)-3-fluoropyrrolidin-1-yl)-2-(1-methyl-1H-indol-3-yl)ethyl)-1H-indole-6-sulfonamide] | 99.7 | 83.9 |  | ≤ 10 |  |  |  |
| Cn1cc(C(CNS(=O)(=O)c2ccc3cc[nH]c3c2)N2CCC(O)CC2)c2ccccc21 (stereo not shown) [Compound 40, N-(2-(4-hydroxypiperidin-1-yl)-2-(1-methyl-1H-indol-3-yl)ethyl)-1H-indole-6-sulfonamide] | 16 | 79.7 |  |  |  |  |  |
| CCn1cc(C(CNS(=O)(=O)c2ccc3cc[nH]c3c2)N(C)C)c2ccccc21 (stereo not shown) [Compound 2, N-(2-(dimethylamino)-2-(1-ethyl-1H-indol-3-yl)ethyl)-1H-indole-6-sulfonamide] | 88 | 99.4 | 95 | ≤ 10 |  |  |  |
| CCN(CC)C(CNS(=O)(=O)c1ccc2cc[nH]c2c1)c1cn(C)c2ccccc12 (stereo not shown) [Compound 38, N-(2-(diethylamino)-2-(1-methyl-1H-indol-3-yl)ethyl)-1H-indole-6-sulfonamide] | 57 | 99.8 |  | 10 to 50 |  |  |  |
| CC(C)n1cc(C(CNS(=O)(=O)c2ccc3cc[nH]c3c2)N(C)C)c2ccccc21 (stereo not shown) [Compound 1, N-(2-(dimethylamino)-2-(1-isopropyl-1H-indol-3-yl)ethyl)-1H-indole-6-sulfonamide] |  |  |  | ≤ 10 | 84 | 99.5 | 96.6 |
| COc1ccc2c(c1)c(C(CNS(=O)(=O)c1ccc3cc[nH]c3c1)N(C)C)cn2C (stereo not shown) [Compound 18, N-(2-(dimethylamino)-2-(5-methoxy-1-methyl-1H-indol-3-yl)ethyl)-1H-indole-6-sulfonamide] | 68 | 52.3 | 98.5 | 10 to 50 |  |  |  |
| CN(C)C(CNS(=O)(=O)c1ccc2ncsc2c1)c1cn(C)c2ccccc12 (stereo not shown) [Compound 11, N-(2-(dimethylamino)-2-(1-methyl-1H-indol-3-yl)ethyl)benzo[d]thiazole-6-sulfonamide] | -6 | -20 | 20.5 |  |  |  |  |
| CN(CCO)C(CNS(=O)(=O)c1ccc2cc[nH]c2c1)c1cn(C)c2ccccc12 (stereo not shown) [Compound 32, N-(2-((2-hydroxyethyl)(methyl)amino)-2-(1-methyl-1H-indol-3-yl)ethyl)-1H-indole-6-sulfonamide] | 60 | 98.5 |  | 10 to 50 |  |  |  |

Next, values leading:

| inhibition at 25 µM [1] [%] | inhibition at 100 µM [2] [%] | inhibition at 400 µM [3] [%] | IC50 [µM] | % Inhibition of Protein Aggregation, 25 μM cmpd [1] [%] | % Inhibition of Protein Aggregation, 100 μM cmpd [2] [%] | % Inhibition of Protein Aggregation, 400 μM cmpd [3] [%] | Compound |
| --- | --- | --- | --- | --- | --- | --- | --- |
| -15 | 65.6 |  |  |  |  |  | Cn1nc([C@H](CNS(=O)(=O)c2ccc3cc[nH]c3c2)N2CCCC2)c2ccccc21 [Compound 90, (S)-N-(2-(1-methyl-1H-indazol-3-yl)-2-(pyrrolidin-1-yl)ethyl)-1H-indole-6-sulfonamide] |
| 2 | 49.8 |  |  |  |  |  | Cn1cc([C@H](CNS(=O)(=O)c2ccc3cc[nH]c3c2)N2CC[C@@H](c3ccccc3)C2)c2ccccc21 [Compound 59, N-((R)-2-(1-methyl-1H-indol-3-yl)-2-((S)-3-phenylpyrrolidin-1-yl)ethyl)-1H-indole-6-sulfonamide] |
| -56 | 21.3 |  |  |  |  |  | Cn1nc([C@H](CNS(=O)(=O)c2ccc3cc[nH]c3c2)N2CCC2)c2ccccc21 [Compound 99, (S)-N-(2-(azetidin-1-yl)-2-(1-methyl-1H-indazol-3-yl)ethyl)-1H-indole-6-sulfonamide] |
| 94 | 94.3 |  |  |  |  |  | Cn1cc([C@H](CNS(=O)(=O)c2ccc3cc[nH]c3c2)N2CCC2)c2ccccc21 [Compound 102, (R)-N-(2-(azetidin-1-yl)-2-(1-methyl-1H-indol-3-yl)ethyl)-1H-indole-6-sulfonamide] |
| 97.7 | 99.1 |  |  |  |  |  | CCn1nc([C@@H](CNS(=O)(=O)c2ccc3cc[nH]c3c2)N2CCC2)c2ccccc21 [Compound 94, (R)-N-(2-(azetidin-1-yl)-2-(1-ethyl-1H-indazol-3-yl)ethyl)-1H-indole-6-sulfonamide] |
| 58 | 100 |  |  |  |  |  | CN(C)C(CNS(=O)(=O)c1ccc2cc[nH]c2c1)c1cn(Cc2cncs2)c2ccccc12 (stereo not shown) [Compound 69, N-(2-(dimethylamino)-2-(1-(thiazol-5-ylmethyl)-1H-indol-3-yl)ethyl)-1H-indole-6-sulfonamide] |
| 49 | 99.3 |  |  |  |  |  | CCn1nc([C@H](CNS(=O)(=O)c2ccc3cc[nH]c3c2)N2CCCC2)c2ccccc21 [Compound 92, (S)-N-(2-(1-ethyl-1H-indazol-3-yl)-2-(pyrrolidin-1-yl)ethyl)-1H-indole-6-sulfonamide] |
| 61.7 | 99.9 |  |  |  |  |  | Cc1ccc2c(C(CNS(=O)(=O)c3ccc4cc[nH]c4c3)N(C)C)cn(C)c2c1 (stereo not shown) [Compound 100, N-(2-(1,6-dimethyl-1H-indol-3-yl)-2-(dimethylamino)ethyl)-1H-indole-6-sulfonamide] |
| -4 | 63.1 |  |  |  |  |  | Cn1cc(C(CNS(=O)(=O)c2ccc3cc[nH]c3c2)N2CCN(CCO)CC2)c2ccccc21 (stereo not shown) [Compound 46, N-(2-(4-(2-hydroxyethyl)piperazin-1-yl)-2-(1-methyl-1H-indol-3-yl)ethyl)-1H-indole-6-sulfonamide] |
| 25 | 71.8 |  |  |  |  |  | Cn1cc([C@@H](CNS(=O)(=O)c2ccc3cc[nH]c3c2)NCc2cncs2)c2ccccc21 [Compound 84, (S)-N-(2-(1-methyl-1H-indol-3-yl)-2-((thiazol-5-ylmethyl)amino)ethyl)-1H-indole-6-sulfonamide] |
| -10 | 99.2 |  |  |  |  |  | CO[C@@H]1CCN([C@@H](CNS(=O)(=O)c2ccc3cc[nH]c3c2)c2cn(C)c3ccccc23)C1 [Compound 75, N-((R)-2-((R)-3-methoxypyrrolidin-1-yl)-2-(1-methyl-1H-indol-3-yl)ethyl)-1H-indole-6-sulfonamide] |
| 62 | 96.2 |  |  |  |  |  | Cn1cc(C(CNS(=O)(=O)c2ccc3cc[nH]c3c2)N2CCC(C)(C)C2)c2ccccc21 (stereo not shown) [Compound 52, N-(2-(3,3-dimethylpyrrolidin-1-yl)-2-(1-methyl-1H-indol-3-yl)ethyl)-1H-indole-6-sulfonamide] |
